Assay results reported in the supplement of paper PMC13380429.

How the values were obtained:
Details in all cases: 72 h
HepG2 [1] = assay: cell viability relative to DMSO; higher = less toxic
Vero E6 [2] = assay: as above
Calu-3 [3] = assay: as above
Caco-2 [4] = assay: as above
U2OS [5] = assay: as above
HepG2 [6] = assay: relative viability EC50 (midpoint between 100% and the lowest measured viability); higher = less toxic
Vero E6 [7] = assay: as above
Calu-3 [8] = assay: as above
U2OS [9] = assay: as above
HepG2 [10] = assay: drug sensitivity score (DSS) for viability; higher = more toxic; extreme values may be limits of the assay
Vero E6 [11] = assay: as above
Calu-3 [12] = assay: as above
Caco-2 [13] = assay: as above
U2OS [14] = assay: as above
Caco-2 [15] = assay: relative viability EC50 (midpoint between 100% and the lowest measured viability); higher = less toxic

| Compound | cell viability (HepG2 [1]; 1 nM) [%] | cell viability (HepG2 [1]; 10 nM) [%] | cell viability (HepG2 [1]; 100 nM) [%] | cell viability (HepG2 [1]; 1000 nM) [%] | cell viability (HepG2 [1]; 10000 nM) [%] | cell viability (Vero E6 [2]; 1 nM) [%] | cell viability (Vero E6 [2]; 10 nM) [%] | cell viability (Vero E6 [2]; 100 nM) [%] | cell viability (Vero E6 [2]; 1000 nM) [%] | cell viability (Vero E6 [2]; 10000 nM) [%] | cell viability (Calu-3 [3]; 1 nM) [%] | cell viability (Calu-3 [3]; 10 nM) [%] | cell viability (Calu-3 [3]; 100 nM) [%] | cell viability (Calu-3 [3]; 1000 nM) [%] | cell viability (Calu-3 [3]; 10000 nM) [%] | cell viability (Caco-2 [4]; 1 nM) [%] | cell viability (Caco-2 [4]; 10 nM) [%] | cell viability (Caco-2 [4]; 100 nM) [%] | cell viability (Caco-2 [4]; 1000 nM) [%] | cell viability (Caco-2 [4]; 10000 nM) [%] | cell viability (U2OS [5]; 1 nM) [%] | cell viability (U2OS [5]; 10 nM) [%] | cell viability (U2OS [5]; 100 nM) [%] | cell viability (U2OS [5]; 1000 nM) [%] | cell viability (U2OS [5]; 10000 nM) [%] | relative viability EC50 (HepG2 [6]) [µM] | relative viability EC50 (Vero E6 [7]) [µM] | relative viability EC50 (Calu-3 [8]) [µM] | relative viability EC50 (U2OS [9]) [µM] | drug sensitivity score (HepG2 [10]) | drug sensitivity score (Vero E6 [11]) | drug sensitivity score (Calu-3 [12]) | drug sensitivity score (Caco-2 [13]) | drug sensitivity score (U2OS [14]) | relative viability EC50 (Caco-2 [15]) [µM] |
| --- | --- | --- | --- | --- | --- | --- | --- | --- | --- | --- | --- | --- | --- | --- | --- | --- | --- | --- | --- | --- | --- | --- | --- | --- | --- | --- | --- | --- | --- | --- | --- | --- | --- | --- | --- |
| CC(C)CC(=O)Nc1n[nH]c2c1CN(C(=O)C1CCN(C)CC1)C2(C)C | 103 | 115 | 102 | 51.9 | 9.7 | 103 | 106 | 104 | 100 | 85.7 | 98.7 | 90.7 | 93.6 | 89.6 | 37.6 | 99.1 | 98.9 | 85.6 | 76.9 | 51 | 101 | 102 | 94 | 68.7 | 15 | 0.95 | > 10 | 1.89 | 1.32 | 10.9 | 0.2 | 5.2 | 5.8 | 8.5 |  |
| CCCCOc1ccc(-c2cncc(C(=O)NCc3cccnc3N3CCOCC3)c2)cc1Cl | 99.7 | 93 | 113 | 106 | 106 | 102 | 102 | 100 | 96.5 | 94.4 | 107 | 96.4 | 92.9 | 104 | 90.4 | 92.8 | 104 | 94.7 | 102 | 74.8 | 104 | 103 | 99.5 | 106 | 92.8 | > 10 | > 10 | > 10 | > 10 | 0 | 0 | 0 | 0.8 | 0 |  |
| Cc1cc(C(=O)NOCCO)c(Nc2ccc(I)cc2F)n(C)c1=O [AZD8330] | 78.2 | 34 | 24 | 20.1 | 18.4 | 89.5 | 72.1 | 52 | 47.7 | 49.2 | 78.8 | 69.5 | 44 | 29.3 | 25.7 | 86.1 | 83.3 | 70 | 62.1 | 66.3 | 93.1 | 94 | 86.2 | 37.3 | 28.3 | 0.0026 | 0.0072 | 0.0118 | 0.265 | 35 | 19.2 | 24.3 | 12 | 13.3 |  |
| O=C(O)c1cc(N2N=C(C(F)(F)F)/C(=C/c3ccc(-c4ccccc4)o3)C2=O)ccc1Cl [EN460] | 106 | 97.9 | 101 | 105 | 92.1 |  |  |  |  |  | 102 | 89.9 | 97.6 | 92.6 | 100 | 101 | 95.2 | 101 | 97.8 | 96.3 | 101 | 102 | 97.9 | 98.6 | 100 | > 10 |  | > 10 | > 10 | 0 |  | 0 | 0 | 0 | > 10 |
| O=C(c1ccc(F)cc1)C1CCN(CCn2c(=S)[nH]c3ccccc3c2=O)CC1 [altanserin] | 108 | 107 | 88.2 | 96 | 86.4 |  |  |  |  |  | 104 | 103 | 112 | 97.3 | 111 | 103 | 82.7 | 94.2 | 89 | 90.6 | 98.2 | 96.7 | 103 | 96.5 | 97.1 | > 10 |  | > 10 | > 10 | 1.7 |  | 0 | 0.2 | 0 | > 10 |
| c1ccc(CN(CC2=NCCN2)c2ccccc2)cc1 [antazoline] | 102 | 91.8 | 90.6 | 96.7 | 103 | 99.1 | 102 | 105 | 90.4 | 91.7 | 90.2 | 105 | 98.3 | 104 | 91.7 | 103 | 84.4 | 92.1 | 84 | 70.7 | 96.5 | 101 | 93.9 | 95 | 90.6 | > 10 | > 10 | > 10 | > 10 | 0 | 0 | 0 | 3.4 | 0 |  |
| O=C1CCc2ccc(OCCCCN3CCN(c4cccc(Cl)c4Cl)CC3)cc2N1 [aripiprazole] | 109 | 105 | 98.6 | 100 | 77.5 | 94.1 | 97.6 | 93.7 | 96.3 | 88.2 | 98.5 | 98.5 | 104 | 91.9 | 83.3 | 112 | 78 | 94.6 | 90.5 | 70.8 | 102 | 103 | 103 | 103 | 89.2 | > 10 | > 10 | > 10 | > 10 | 0.8 | 0 | 1.1 | 2.3 | 0 |  |
